Laboratory results as given in US4766046A, “Stabilized liposome/amphotericin composition and method” (priority 1985, dated 1988).
Entries after “also recorded” stand apart in the source; their conditions may differ.

What was measured:
[1] = Procedure: The MLVs which formed were diluted, concentrated by ultrafiltration, and extruded successively through 0.4 and 0.2 micron polycarbonate membranes, as in Example II.
Liposomes were prepared from mixture #1 lipids and 3.5 mole percent AMB, with hydration in either PBS, or in a Tris--HCl buffer containing 5% w/v of one of the following sugars: glucose, mannitol, trehalose, sucrose, lactose, or maltodextrin. The MLVs formed on hydration with the selected aqueous medium were extruded successively through 0.4 and 0.2 micron polycarbonate membranes, diluted with the selected medium, and concentrated to the original volume, according to Example I. The liposome suspensions were frozen against a dry ice/isopropanol mixture and lyophilized at a pressure of about 15 mTorr. The lyophilized material was stored under nitrogen at refrigerator temperature until used, typically at least about 12 hours.
Following storage, each of the lyophilized liposome preparations was resuspended to its prelyophilization volume by addition of distilled water. The samples were agitated briefly to facilitate resuspension, and resuspended samples were examined for liposome size distribution, as above.

[2] = cited from earlier work
[3] = free form; cited from earlier work
fungal infections = conditions: cited from earlier work

OC[C@H]1O[C@@](CO)(O[C@H]2O[C@H](CO)[C@@H](O)[C@H](O)[C@H]2O)[C@@H](O)[C@@H]1O [sucrose]
size stabilization on dehydration and rehydration [1]: good size stabilization

O=C[C@H](O)[C@@H](O)[C@H](O)[C@H](O)CO [glucose]
size stabilization on dehydration and rehydration [1]: good size stabilization

CC(C)[C@@H](C)/C=C/[C@@H](C)[C@H]1CC[C@H]2C3=CC=C4C[C@@H](O)CC[C@]4(C)[C@H]3CC[C@]12C [Ergosterol]
protective effect in liposomes ([2]; compared with cholesterol (reference 12)): greater protective effect than cholesterol in liposomes

C[C@@H]1[C@H](O)[C@@H](C)/C=C/C=C/C=C/C=C/C=C/C=C/C=C/[C@H](O[C@@H]2O[C@H](C)[C@@H](O)[C@H](N)[C@@H]2O)C[C@@H]2O[C@](O)(C[C@@H](O)C[C@@H](O)[C@H](O)CC[C@@H](O)C[C@@H](O)CC(=O)O[C@H]1C)C[C@H](O)[C@H]2C(=O)O [AMB, Amphotericin B]
LD50 ([2]; earlier studies (references 2-12)): 2 to 3 mg/kg
side effects of free AMB [3]: side effects resulting from red blood cell disruption are observed initially, followed by more serious cardiotoxicity effects; also recorded: Renal toxicity
antifungal activity, in words (fungal infections): effective antifungal agent
